The subject of test [1] is influenza virus A/California/7/09 (H1N1)pdm09. Type of test: cell-based, influenza virus A/California/07/09 (H1N1)pdm09.
For test [2] the test system is unchanged. To be noted: cited from earlier work.

With `CC1(C)C2CC[C@@]1(C)C(=O)C2` [Compound 1, (1R)-(+)-camphor, reference compound], in test [1], the “Antiviral (virus-inhibiting) activity, in words” value was “does not possess a virus-inhibiting activity”.
Still for that read-out and setting: the entry for `CC1(C)[C@@H]2CC[C@@]1(C)/C(=N/CCC/N=C1\C[C@H]3CC[C@]1(C)C3(C)C)C2` [Compound 2a, N^1E,N^3E-N^1,N^3-bis((1R,2R,4R)-1,7,7-trimethylbicyclo[2.2.1]heptan-2-ylidene)propane-1,3-diamine] is “highest antiviral activity”; for `CC1(C)[C@@H]2CC[C@@]1(C)/C(=N/CCCCCC/N=C1\C[C@H]3CC[C@]1(C)C3(C)C)C2` [Compound 2b, N^1E,N^6E-N^1,N^6-bis((1R,2R,4R)-1,7,7-trimethylbicyclo[2.2.1]heptan-2-ylidene)hexane-1,6-diamine] it is “highest antiviral activity”.
On the same count and under the same terms, the entry for `CC1(C)[C@@H]2CC[C@@]1(C)/C(=N/CCCCCCC/N=C1\C[C@H]3CC[C@]1(C)C3(C)C)C2` [Compound 2c, N^1E,N^7E-N^1,N^7-bis((1R,2R,4R)-1,7,7-trimethylbicyclo[2.2.1]heptan-2-ylidene)heptane-1,7-diamine] is “highest antiviral activity”; for `CC1(C)[C@@H]2CC[C@@]1(C)/C(=N/CCCCCCCCCCCC/N=C1\C[C@H]3CC[C@]1(C)C3(C)C)C2` [Compound 2e, N^1E,N^12E-N^1,N^12-bis((1R,2R,4R)-1,7,7-trimethylbicyclo[2.2.1]heptan-2-ylidene)dodecane-1,12-diamine] it is “highest antiviral activity”.
Still for that read-out and setting: to `CC1(C)[C@@H]2CC[C@@]1(C)/C(=N/c1ccc(Cc3ccc(/N=C4\C[C@H]5CC[C@]4(C)C5(C)C)cc3)cc1)C2` [Compound 2f, (E)-N-((1R,2R,4R)-1,7,7-trimethylbicyclo[2.2.1]heptan-2-ylidene)-4-(4-((E)-((1R,2R,4R)-1,7,7-trimethylbicyclo[2.2.1]heptan-2-ylidene)amino)benzyl)aniline] belongs “did not exhibit high antiviral activity”; to `CC1(C)[C@@H]2CC[C@@]1(C)[C@H](Nc1ccc(Oc3ccc(N[C@@H]4C[C@H]5CC[C@]4(C)C5(C)C)cc3)cc1)C2` [Compound 3g, (1R,2R,4R)-1,7,7-trimethyl-N-(4-(4-((1R,2R,4R)-1,7,7-trimethylbicyclo[2.2.1]heptan-2-ylamino)phenoxy)phenyl)bicyclo[2.2.1]heptan-2-amine], “did not exhibit high antiviral activity”.
In the case of `CC1(C)[C@@H]2CC[C@@]1(C)/C(=N/c1ccc(Cc3ccc(N)cc3)cc1)C2` [Compound 5f, (E)-4-(4-aminobenzyl)-N-((1R,2R,4R)-1,7,7-trimethylbicyclo[2.2.1]heptan-2-ylidene)aniline], the “Antiviral (virus-inhibiting) activity, in words” value in test [1] is recorded as “did not exhibit high antiviral activity”.
Take `NC(=O)c1ncn([C@@H]2O[C@H](CO)[C@@H](O)[C@H]2O)n1` [Ribavirin]: the “ED50 (50% effective concentration)” value in test [2] is 24.6 µM.

(Values after PMC7126937 (Bioorganic & Medicinal Chemistry, 2014).)
